Test results reported in PMC11854273, “Screening of the Antimelanoma Activity of Monoterpenes—In Vitro Experiments on Four Human Melanoma Lines” (Current Issues in Molecular Biology, 2025).
Where two headings read alike, the source gives them in different places.

Key:
[1] = tested on: malignant melanoma cell lines A375, SK-MEL28, FM55P, FM55M2; experiment: MTT cell viability assay, four melanoma lines taken together; assay type: cell-based, human; settings: for effect on melanoma cell viability (in words): four melanoma lines; for IC50: read-out: IC50 range depending on the melanoma cell line
Protocol: (§1) All tested cell lines—the HaCaT cell line model of human keratinocyte cells (density: 1 × 10^4 cells/mL) and four human malignant melanoma lines (density: 2–3 × 10^4 cells/mL, depending on the cell line—were plated on microtiter plates (NEST Biotechnology, Wuxi, China). After a day (24 h) of incubation, the medium was replaced with a fresh medium to which increasing concentrations of the tested substances were added. The experimental steps of the MTT assay were previously described. Each experiment in the MTT assay was performed in triplicate to ensure the repeatability and validity of the results.
(§2) Data were presented as means ± standard errors (SEMs).

[2] = tested on: normal human keratinocytes HaCaT; experiment: MTT cell viability assay, normal keratinocytes; assay type: cell-based; settings: for IC50: Homo sapiens
Protocol: as §1, §2

[3] = tested on: human cervical cancer, human lung cancer, monkey kidney cells and mouse macrophages; parameters: method as in doi:10.1590/S0044-59672007000200015; settings: 200 µg/mL (≈1.5 mM); cited from earlier work
[4] = tested on: liver cancer cell lines and mouse melanoma B16-F10; parameters: method as in PMID 23453306; settings: authors' conversion of the μg/mL values; cited from earlier work
[5] = tested on: A375 malignant melanoma cell line; experiment: MTT cell viability assay, A375; assay type: cell-based; settings: Homo sapiens
Protocol: as §1, §2

[6] = tested on: H1299 lung cancer cell line; parameters: method as in PMID 32420353; settings: cited from earlier work
[7] = tested on: HT29 colon cancer cell line; parameters: method as in PMID 31323842; settings: cited from earlier work
[8] = tested on: SK-MEL28 malignant melanoma cell line; experiment: MTT cell viability assay, SK-MEL28; assay type: cell-based; settings: Homo sapiens
Protocol: as §1, §2

[9] = tested on: SW620 colon cancer cell line; parameters: method as in PMID 31323842; settings: cited from earlier work
[10] = tested on: MDA MB-231 breast cancer cell line; parameters: method as in PMID 32526880, PMID 30733560; settings: cited from earlier work
[11] = tested on: 4T1 breast cancer cell line; parameters: method as in PMID 32526880, PMID 30733560; settings: cited from earlier work
[12] = tested on: malignant melanoma cell lines A375, SK-MEL28, FM55P, FM55M2; experiment: LDH cytotoxicity assay, melanoma lines; settings: 72 h
Protocol: Four malignant melanoma cell lines, FM55P, FM55M2 (ECACC, Public Health England, Porton Down, UK), A375 and SK-MEL28 (ATCC, Manassas, VA, USA) were used. The immortalized human normal keratinocyte (HaCaT; ATCC, Manassas, VA, USA) served as a reference cell line. Of note, the A375 cell line is the original and not a CRISPR-modified version of the cell line, and all the tested cell lines in this study have the BRAF V600E mutation. The experimental cell culture conditions were as follows: 37 °C in a humidified atmosphere of 95% air and 5% CO2. The culture media used were as follows: for A375—DMEM high glucose; for SK-MEL28—EMEM; and for FM55P and FM55M2—RPMI1640 (All from Sigma-Aldrich, St. Louis, MO, USA). Previous publications described in more detail the growth conditions of these cell line cultures.
Specified densities (as above) of all the studied melanoma and normal human cell line were plated on microtiter plates (NEST). […] The LDH test was carried out after 72 h of incubation with the tested terpenes according to the manufacturer’s instructions. A more detailed description of the steps of the LDH test was previously provided.
GraphPad Prism (version 8.0, San Diego, CA, USA) was used for statistical analysis of the data (from the MTT and LDH tests). The analyses were performed with a one-way ANOVA test followed by Tukey’s post hoc test. Data were presented as means ± standard errors (SEMs). The median inhibitory concentration (IC50) values for the tested terpenes were calculated automatically with a computer-assisted log-probit method using an MS Excel spreadsheet, as previously described.

[13] = tested on: A549 lung cancer cell line; parameters: method as in PMID 32420353; settings: cited from earlier work
[14] = tested on: FM55M2 malignant melanoma cell line; experiment: MTT cell viability assay, FM55M2; assay type: cell-based; settings: Homo sapiens, 72 h
Protocol: as §1, §2

[15] = tested on: FM55P malignant melanoma cell line; experiment: MTT cell viability assay, FM55P; assay type: cell-based; settings: Homo sapiens, 72 h
Protocol: as §1, §2

MDA-MB-231 cells = tested on: MDA-MB-231 cells; parameters: method as in PMID 32772589; settings: cited from earlier work
MCF-7 breast cancer line = tested on: MCF-7 breast cancer line; parameters: method as in PMID 32772589; settings: cited from earlier work
[16] = tested on: mouse melanoma B16(F10) cells; settings: B16F10; cited from earlier work
A549 line = tested on: A549 line; parameters: method as in PMID 31202132; settings: cited from earlier work
[17] = tested on: B16-F10 mouse melanoma cell lines; parameters: method as in PMID 22352891; settings: B16-F10, MTT test, cited from earlier work
[18] = tested on: colo-205 colon cancer cell line; settings: cited from earlier work
A431 skin cancer line = settings: A431, MTT assay; cited from earlier work
[19] = tested on: Ishikawa cell line, of endometrial cancer; settings: 24 h of incubation; cited from earlier work
[20] = range over the four human melanoma lines, MTT, 72 h
[21] = A-375, A375, MTT assay, 72 h, mean ± SEM, read-out: IC50
[22] = SK-MEL-28, SK-MEL28, MTT assay, 72 h, mean ± SEM, read-out: IC50
[23] = A549, authors' conversion, read-out: IC50
[24] = HaCaT, MTT assay, 72 h, mean ± SEM, read-out: IC50
[25] = FM55M2, MTT assay, mean ± SEM, read-out: IC50
[26] = FM55P, MTT assay, mean ± SEM, read-out: IC50

## CC(C)=CCC/C(C)=C\CO [Nerol, nerol]
[1]; MTT, 72 h
  concentration significantly affecting viability of melanoma cell lines: 0.13 to 0.65 mM
  effect on melanoma cell viability (in words): Its effect was not significant
[1]; [20]
  IC50 range depending on the melanoma cell line: could not be determined
[2]; human, 72 h
  concentration significantly affecting viability of normal keratinocytes: 650 µM

## C=CC(=C)CCC=C(C)C [Myrcene, myrcene]
[3]
  cytotoxic activity (in words): no cytotoxic activity
[1]; MTT, 72 h
  concentration up to which no significant inhibition of melanoma line growth: up to 5 mM
[1]; [20]
  IC50 range depending on the melanoma cell line: could not be determined
[4]
  IC50: 70 to 90 µM
[2]; HaCaT, MTT, 72 h
  concentration significantly affecting viability of normal keratinocytes: 3000 µM

## CC(C)=CCC/C(C)=C/C=O [Citral, citral]
[5]; [21]
  IC50: 130 ± 10 µM
[6]; H1299, authors' conversion, read-out: IC50
  IC50: ~26 µM
[6]; H1299
  IC50: 4.01 ± 0.30 mg/L
[7]; HT29, authors' conversion, read-out: IC50
  IC50: ~143 µM
[7]; HT29
  IC50: 21.77 ± 0.23 mg/L
[8]; [22]
  IC50: 100 ± 10 µM
[9]; SW620, authors' conversion, read-out: IC50
  IC50: ~148 µM
[9]; SW620
  IC50: 22.50 ± 2.50 mg/L
[10]; MDA MB-231, authors' conversion, read-out: IC50
  IC50: ~135 µM
[10]; MDA MB-231
  IC50: 20.5 ± 1.41 mg/L
[1]; MTT, 72 h
  effect on melanoma cell viability (in words): showed a significant anti-viability effect
[1]; [20]
  IC50: 80 to 130 µM
[11]; 4T1, authors' conversion, read-out: IC50
  IC50: ~140 µM
[11]; 4T1
  IC50: 21.4 ± 2.82 mg/L
[12]
  concentration with statistically significant cytotoxicity towards melanoma cells: above 0.2 mM
[13]; [23]
  IC50: ~11 µM
[13]; A549
  IC50: 1.73 ± 0.37 mg/L
[2]; 0.3 mM, MTT
  inhibition of HaCaT proliferation: up to 28%
[2]; HaCaT, MTT
  effect on normal keratinocyte cells (in words): at high concentrations, it had a negative effect on normal keratinocyte cells
[2]; [24]
  IC50: 290 ± 10 µM
[2]; highest concentration of 0.4 mM, MTT
  inhibition of HaCaT proliferation: approximately 10%
[14]; [25]
  IC50: 80 µM
[15]; [26]
  IC50: 90 ± 10 µM

## CC(C)=CCCC(C)CCO (stereo not drawn) [Citronellol, citronellol]
[5]; [21]
  IC50: 3630 ± 560 µM
[8]; [22]
  IC50: 4810 ± 290 µM
MDA-MB-231 cells
  IC50: 35 µM
MCF-7 breast cancer line
  IC50: 80 µM
[1]; MTT, 72 h
  effect on melanoma cell viability (in words): showed a significant anti-viability effect
[1]; [20]
  IC50: 2170 to 4810 µM
[12]
  concentration with statistically significant cytotoxicity towards melanoma cells: above 4.2 mM
[2]; HaCaT, MTT, 72 h
  concentration significantly affecting viability of normal keratinocytes: 1200 to 6000 µM
[2]; [24]
  IC50: 6270 ± 1150 µM
[14]; [25]
  IC50: 2170 ± 300 µM
[15]; [26]
  IC50: 2450 ± 380 µM

## C=C(C)CCC[C@H](C)CCO [Rhodinol, rhodinol]
[1]; MTT, 72 h
  concentration significantly affecting viability of melanoma cell lines: ≥ 4.8 mM
  effect on melanoma cell viability (in words): did not show any significant activity
[1]; [20]
  IC50 range depending on the melanoma cell line: could not be determined
[2]; HaCaT, MTT, 72 h
  concentration significantly affecting viability of normal keratinocytes: ≥ 4800 µM

## Cc1ccc(C(C)C)cc1O [Carvacrol, carvacrol]
[16]
  IC50: 120 ± 15 µM
[5]; A-375, 72 h
  IC50: 60 µM
[8]; SK-MEL-28, 72 h
  IC50: 60 ± 10 µM
[1]; Homo sapiens, 72 h
  IC50: 50 to 60 µM
[1]; MTT, 72 h
  effect on melanoma cell viability (in words): showed a significant anti-viability effect
[1]; SI = IC50 for HaCaT / IC50 for respective melanoma cell line, MTT
  selectivity index: above 10
[12]
  concentration with statistically significant cytotoxicity towards melanoma cells: 50 to 650 µM
[2]; HaCaT, MTT
  effect on normal keratinocyte cells (in words): did not negatively affect normal human keratinocyte cells
[2]; HaCaT, MTT, 72 h
  concentration up to which HaCaT viability was not significantly affected: ≤ 650 µM
[2]; HaCaT, 72 h
  IC50: > 650 µM
[14]
  IC50: 50 µM
[15]
  IC50: 60 ± 10 µM
A549 line; [23]
  IC50: ~670 µM
A549 line; A549
  IC50: 100 mg/L

## Cc1ccc(C(C)C)c(O)c1 [Thymol, thymol]
[5]; [21]
  IC50: 480 ± 40 µM
[8]; [22]
  IC50: 510 ± 30 µM
[1]; MTT, 72 h
  effect on melanoma cell viability (in words): showed a significant anti-viability effect
[1]; [20]
  IC50: 460 to 530 µM
[12]
  concentration with statistically significant cytotoxicity towards melanoma cells: above 0.03 mM
[12]; SK-MEL28 line
  concentration from which cytotoxicity was statistically significant: ≥ 30 µM
[2]; HaCaT, MTT
  effect on normal keratinocyte cells (in words): at high concentrations, it affects the viability of normal cell lines without cytotoxicity
[2]; [24]
  IC50: > 1300 µM
[14]; [25]
  IC50: 530 ± 50 µM
[15]; [26]
  IC50: 460 ± 50 µM
[17]; authors' conversion, read-out: IC50
  IC50: 400 µM
[17]
  IC50: 60.09 mg/L

## CC(C)=CCC/C(C)=C/CO [Geraniol, geraniol]
[16]
  IC50: 150 ± 19 µM
[5]; [21]
  IC50: 270 ± 30 µM
[18]
  IC50: 20 µM
A431 skin cancer line
  IC50: 98 µM
[8]; [22]
  IC50: 440 ± 30 µM
[1]; MTT, 72 h
  effect on melanoma cell viability (in words): showed a significant anti-viability effect
[1]; [20]
  IC50: 270 to 440 µM
[19]
  IC50: 260 µM
[2]; [24]
  IC50: > 650 µM
[14]; [25]
  IC50: 420 ± 20 µM
[15]; [26]
  IC50: 330 ± 20 µM
